From patent publication US20070243548A1, “Calumenin-directed diagnostics and therapeutics for cancer and chemotherapeutic drug resistance” (priority 2006, published 2007)

System: hematological tumor cells
Assay: Hematological tumors in MHC-matched mice
Type: in vivo
Protocol: In order to determine whether targeting calumenin is useful in treating a preexisting cancerous condition, MHC-matched mice, 5 to 7 weeks old, receive a subcutaneous (s.c.) injection of 5×10^5 hematological tumor cells, and tumors are allowed to form. Tumor growth starting on the first day of treatment is measured by palpitation, and the volume of the xenograft is monitored every 4 days. Tumors are allowed to grow to a sufficient size (5.5 mm) for appropriate analysis of the effects of calumenin treatment on tumor sensitivity to chemotherapeutic drugs. Mice are then treated with a calumenin siRNA (3 μg daily for 16 days) designed to decrease the level of expression of calumenin. Control mice receive no treatment, treatment with taxol or doxorubicin alone (4 mg/kg daily) or treatment with control siRNA sequences that are not complementary to murine calumenin mRNA (3 μg daily for 16 days for each treatment) in combination with taxol or doxorubicin (4 mg/kg daily). Taxol and doxorubicin can be obtained commercially from Sigma Corp. (St. Louis, Mo.).
The animal's weight is measured every 4 days. Tumor growth starting on the first day of treatment is measured by palpitation and the volume of the xenograft is monitored every 4 days. The mice are anaesthetized and sacrificed when the mean tumor weight is over 1 g in the control group. Tumor tissue is excised from the mice and its weight is measured. Tumor weights from mice treated with the calumenin siRNA and chemotherapeutic drugs are compared to tumor weights from mice treated with control siRNA and chemotherapeutic drugs. Tumor cell count is determined by trypsinizing tumors in DMEM medium supplemented with 10% fetal bovine serum until cells are in free suspension. Cells are then transferred to 6-well plates for counting. Cell counts are compared. All experiments are performed in triplicate.
In order to determine whether targeting calumenin is useful in treating a preexisting cancerous condition, MHC-matched mice, 5 to 7 weeks old, receive an s.c. injection of 5×10^5 hematological tumor cells, and tumors are allowed to form. Tumor growth starting on the first day of treatment is measured by palpitation and the volume of the xenograft is monitored every 4 days. Tumors are allowed to grow to a sufficient size (5.5 mm) for appropriate analysis of the effects of calumenin treatment on tumor sensitivity to chemotherapeutic drugs. […]
The animal's weight is measured every 4 days. Tumor growth starting on the first day of treatment is measured and the volume of the xenograft is monitored every 4 days. […] Tumor tissue is excised from the mice and its weight is measured. […] Tumor cell count is determined by trypsinizing tumors in DMEM medium supplemented with 10% fetal bovine serum until cells are in free suspension. […]

With “Calumenin siRNA: siRNA duplex targeting human calumenin mRNA; sense 5′-GAAGGACCGUGUACAUCAU-3′ (SEQ ID NO: 1), anti-sense 5′-AUGAUGUACACGGUCCUUC-3′ (SEQ ID NO: 2), 3′TT overhangs (3' TT overhangs on both strands, further chemistry not given here)” the “prognosis (i.e., smaller tumor or fewer tumor cells)” value (composition vs only the targeting agent or only the chemotherapeutic drug) was “better prognosis”, the “total cell number in tumors” value (hematological cancers, vs mice treated with control siRNA) was “lower” and the tumors by weight (hematological cancers, vs mice treated with control siRNA, 3 μg siRNA daily for 16 days) was “smaller”. The “sensitivity of tumors to chemotherapeutic drug treatment regimes” value (hematological tumors in mice) was “increases”.
